How the values were obtained:
[1] = target: T1, HER2 wildtype (WT) protein (Homo sapiens, UniProt P04626); experiment: HER2 signaling (pHER2 Tyr1248/total HER2 MSD) in BT474 cells; type: cell-based; conditions: 1.5 hr compound, 1% FBS
T1 construct: BT474 and N87 cell lines which endogenously overexpress the HER2 wildtype (WT) protein; endogenous in cells; host or cells: BT474, N87
Procedure: In addition to the engineered cell lines, the following cell lines were used: BT474 (human breast carcinoma), N87 (human gastric carcinoma), NCI-H1781 (human lung adenocarcinoma), and A431 (human epidermoid carcinoma); all cell lines were obtained from the American Type Culture Collection (ATCC, Manassas, VA). NCI-H1781 were grown in complete RPMI 1640 (Life Technologies, Carlsbad, CA) supplemented with 15% fetal bovine serum (FBS, Life Technologies, Carlsbad, CA) and 1% Penicillin-Streptomycin (P/S, Life Technologies, Carlsbad, CA). N87 cells were grown in complete RPMI 1640 supplemented with 10% FBS and 1% P/S. BT474 and A431 cells were grown in DMEM (Life Technologies, Carlsbad, CA) supplemented with 10% FBS and 1% P/S. All cells were maintained and propagated in a humidified 5% CO2 incubator at 37° C.
HER2 signaling was assessed in BT474 and N87 cell lines which endogenously overexpress the HER2 wildtype (WT) protein, in NCI-H1781 cells which endogenously expresses a HER2 mutant protein containing a VC insertion in the kinase domain (HER2VC or G776delinsVC), and in engineered cell lines transduced to express the Her2 mutant protein containing the YVMA insertion (Hek293-HER2YVMA and BEAS2B-HER2YVMA).
BT474, N87, and NCI-H1781 were plated in 96-well tissue-culture treated plates (Corning Costar, Sigma-Aldrich) in full media and incubated overnight. Hek293-HER2YVMA and BEAS2B-HER2YVMA cells were plated in 96-well poly-D-lysine treated plates (BD Bioscience, San Jose, CA). For treatment with test compounds, the media was replaced with corresponding low serum media (1% FBS) containing test compound at 1.1, 0.37, 0.12, 0.041, 0.014, 0.005, 0.0014, 0.0005 μM or DMSO control (0.1%). Cells were incubated with compound for 1.5 hr at 37° C. After compound treatment, the media was removed and cells were lysed for 30 min on ice in complete MSD lysis buffer (prepared using MSD base lysis buffer (Meso-Scale Discovery) supplemented with cOmplete, EDTA-free Protease inhibitor cocktail (Roche), Phosphatase Inhibitor Cocktails 2 and 3 (Sigma-Aldrich), and 1 mM PMSF (Sigma-Aldrich)). Lysates were stored at −70° C. until further analysis.
HER2 signaling was evaluated using phospho (Tyr1248)/total ErbB2 whole cell lysate MSD plates (Meso-Scale Discovery, Gaithersburg, MD). The phospho HER2 signal was normalized to total HER2 for each sample; results are reported as % DMSO control. The normalized data was fitted using a sigmoidal curve analysis program (Graph Pad Prism version 6) with variable Hill slope to determine EC50 values.
The HER2 signaling results are provided in Table 4, under columns titled “BT474-pHER2 EC50”, “N87-pHER2 EC50”, and “NCI-H1781-pHER2 EC50”. Hek293-HER2YVMA ins fall under the heading “HEKYVMA-pHER2 EC50”, Ba/F3 HER2YVMA fall under the heading “Ba/F3 YVMA-pHER2 EC50” and BEAS2B-HER2YVMA fall under the heading “BEAS2B YVMA-pHER2 EC50”.

EGFR WT = target: T2, EGFR WT (Homo sapiens, UniProt P00533); experiment: Enzymatic assay EGFR WT (method c); type: biochemical; conditions: [EGFR WT]=2 nM, [ATP]=1 mM, [Peptide 22]=1 μM
T2 construct: purchased Thermo Fisher, Carlsbad, CA ERBB1 PR7295B
T2 sequence (P00533 25-1210): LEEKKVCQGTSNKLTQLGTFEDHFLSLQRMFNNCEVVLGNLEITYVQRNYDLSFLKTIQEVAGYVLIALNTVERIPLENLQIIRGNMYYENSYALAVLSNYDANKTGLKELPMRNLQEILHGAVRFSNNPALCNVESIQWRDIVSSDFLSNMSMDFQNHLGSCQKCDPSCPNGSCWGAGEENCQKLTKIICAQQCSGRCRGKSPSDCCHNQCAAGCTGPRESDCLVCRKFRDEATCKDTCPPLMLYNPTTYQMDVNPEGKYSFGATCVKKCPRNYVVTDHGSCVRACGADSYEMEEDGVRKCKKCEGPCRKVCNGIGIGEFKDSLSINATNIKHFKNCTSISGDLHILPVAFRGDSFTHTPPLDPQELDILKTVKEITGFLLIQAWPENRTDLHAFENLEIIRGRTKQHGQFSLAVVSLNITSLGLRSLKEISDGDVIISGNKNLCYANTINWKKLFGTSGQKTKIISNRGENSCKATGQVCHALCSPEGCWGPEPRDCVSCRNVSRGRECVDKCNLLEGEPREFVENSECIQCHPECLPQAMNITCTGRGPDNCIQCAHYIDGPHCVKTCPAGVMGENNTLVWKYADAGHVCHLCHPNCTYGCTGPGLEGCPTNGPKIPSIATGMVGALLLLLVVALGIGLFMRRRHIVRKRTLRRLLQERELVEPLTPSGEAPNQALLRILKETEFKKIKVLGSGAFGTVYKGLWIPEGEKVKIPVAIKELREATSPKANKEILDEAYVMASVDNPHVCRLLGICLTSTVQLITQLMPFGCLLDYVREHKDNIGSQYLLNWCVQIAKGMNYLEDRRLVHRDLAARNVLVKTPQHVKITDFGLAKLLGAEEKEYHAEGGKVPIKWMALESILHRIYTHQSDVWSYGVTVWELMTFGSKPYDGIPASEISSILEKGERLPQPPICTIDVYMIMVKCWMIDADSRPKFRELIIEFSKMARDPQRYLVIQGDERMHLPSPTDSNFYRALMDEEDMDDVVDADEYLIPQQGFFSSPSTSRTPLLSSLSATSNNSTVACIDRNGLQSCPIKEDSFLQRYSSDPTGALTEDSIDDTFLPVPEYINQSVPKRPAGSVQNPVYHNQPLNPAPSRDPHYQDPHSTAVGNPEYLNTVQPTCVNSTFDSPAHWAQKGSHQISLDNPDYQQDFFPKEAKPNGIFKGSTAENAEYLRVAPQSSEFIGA
Procedure: (§1) A 2× stock solution of HER2 WT (ERBB2 0108-0000-1; ProQinase, Freiburg, Germany) corresponding to method a, was prepared as described below. Alternatively, a 2× stock solution of HER2YVMA (custom purification; Viva biotech, Shanghai, China) corresponding to method b, was prepared as described below. For method c, a 2× stock of EGFR (ERBB1 PR7295B, Thermo Fisher, Carlsbad, CA) was prepared as described below. All 2× solutions were prepared in buffer containing 50 mM HEPES, pH 7.5, 10 mM MnCl2, MgCl2, 0.005% Tween 20, 1 mM TCEP. 25 ul of 2× enzyme solution was added to a Seahorse low volume 384-well polypropylene assay plate (201288-100, Seahorse Bioscience, Chicopee, MA) containing 1 μl of compound serially diluted in 50% DMSO. To initiate the reaction, 25 μl of solution containing 2× final concentration of ATP and ProfilerPro Peptide 22 (760366, Perkin Elmer Hopkinton, MA) was added to each well. The reactions were separated on an LC3000 (Caliper Life Sciences) or a LabChip EZReader (Perkin Elmer) in kinetic mode.
(§2) At the conclusion of each assay, the data were exported from the instrument as a .rda file (LC3000) and processed in proprietary software, EZReviewer, which determines the percent of substrate converted to product within a given cycle as (P/P+S)*100 by measuring the amplitude of substrate and product peaks. Cycle time varied with amount of compounds tested between 8 and 12 cycles. Initial velocity (0-3600 s) from each reaction was determined from the slope of a plot of percent conversion at each cycle versus time (seconds). Percent inhibition was determined by dividing the slope of each reaction by the uninhibited control using 100*(1-(x/uninhibited control)). IC50 estimates were obtained by plotting the concentration of inhibitor versus percent inhibition in GraphPad Prism (GraphPad Software, San Diego, CA) using log[inhibitor] versus Response (Variable Slope Model); Y=Min+((Max-Min)/(1+((IC50/x)^Hillslope)))
(§3) • a) [HER2 WT]=12.5 nM, [ATP]=25 μM, [Peptide 22]=1 μM (ATP KMapp˜25 μM) • b) [HER2YVMA]=5 nM, [ATP]=25 μM, [Peptide 22]=1 μM (ATP KMapp˜15 μM) • c) [EGFR WT]=2 nM, [ATP]=1 mM, [Peptide 22]=1 μM (ATP KMapp˜25 μM)

HER2 WT = target: T3, HER2 WT (Homo sapiens, UniProt P04626); experiment: Enzymatic assay HER2 WT (method a); type: biochemical; conditions: [HER2 WT]=12.5 nM, [ATP]=25 μM, [Peptide 22]=1 μM
T3 construct: purchased ProQinase, Freiburg, Germany ERBB2 0108-0000-1
T3 sequence (P04626 23-1255): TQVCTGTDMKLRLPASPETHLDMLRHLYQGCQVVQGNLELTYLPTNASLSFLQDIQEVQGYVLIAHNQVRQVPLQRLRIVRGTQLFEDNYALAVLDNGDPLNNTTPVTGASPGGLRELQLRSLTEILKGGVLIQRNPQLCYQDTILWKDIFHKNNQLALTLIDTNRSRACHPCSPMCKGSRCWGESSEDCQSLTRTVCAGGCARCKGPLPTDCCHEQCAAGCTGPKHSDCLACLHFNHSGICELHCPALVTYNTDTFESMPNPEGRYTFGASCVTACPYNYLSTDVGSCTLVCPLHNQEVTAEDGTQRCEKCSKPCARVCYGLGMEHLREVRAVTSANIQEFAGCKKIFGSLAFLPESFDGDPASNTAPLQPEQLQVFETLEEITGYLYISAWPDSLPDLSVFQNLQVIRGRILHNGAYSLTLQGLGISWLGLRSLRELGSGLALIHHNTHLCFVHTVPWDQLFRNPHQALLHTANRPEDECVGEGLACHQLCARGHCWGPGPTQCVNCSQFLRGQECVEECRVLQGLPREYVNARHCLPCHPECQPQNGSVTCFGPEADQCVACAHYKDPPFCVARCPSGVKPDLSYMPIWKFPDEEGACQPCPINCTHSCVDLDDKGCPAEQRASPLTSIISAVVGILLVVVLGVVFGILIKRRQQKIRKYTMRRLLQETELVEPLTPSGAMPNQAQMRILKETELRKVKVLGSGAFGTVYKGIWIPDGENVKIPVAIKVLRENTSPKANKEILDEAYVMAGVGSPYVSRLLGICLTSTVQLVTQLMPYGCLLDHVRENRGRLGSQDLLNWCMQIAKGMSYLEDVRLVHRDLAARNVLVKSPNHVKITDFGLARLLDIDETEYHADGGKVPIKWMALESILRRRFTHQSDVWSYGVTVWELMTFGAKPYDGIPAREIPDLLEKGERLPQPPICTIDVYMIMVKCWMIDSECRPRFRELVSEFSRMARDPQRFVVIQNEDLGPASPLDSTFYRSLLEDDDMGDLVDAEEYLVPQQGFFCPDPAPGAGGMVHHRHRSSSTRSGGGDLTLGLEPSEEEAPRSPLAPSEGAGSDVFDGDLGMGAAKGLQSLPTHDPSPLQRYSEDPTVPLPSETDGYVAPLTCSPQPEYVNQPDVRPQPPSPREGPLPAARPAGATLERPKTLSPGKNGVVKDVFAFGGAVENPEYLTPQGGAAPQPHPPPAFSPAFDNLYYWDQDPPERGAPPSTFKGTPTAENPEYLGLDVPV
Procedure: as §1, §2, §3

HER2YVMA = HER2YVMA (Homo sapiens, UniProt P04626, INS775YVMA); experiment: Enzymatic assay HER2YVMA (method b); type: biochemical; parameters: purchased Viva biotech, Shanghai, China custom purification; conditions: [HER2YVMA]=5 nM, [ATP]=25 μM, [Peptide 22]=1 μM
Sequence of HER2YVMA (P04626 with tags, fused parts or gaps INS775YVMA): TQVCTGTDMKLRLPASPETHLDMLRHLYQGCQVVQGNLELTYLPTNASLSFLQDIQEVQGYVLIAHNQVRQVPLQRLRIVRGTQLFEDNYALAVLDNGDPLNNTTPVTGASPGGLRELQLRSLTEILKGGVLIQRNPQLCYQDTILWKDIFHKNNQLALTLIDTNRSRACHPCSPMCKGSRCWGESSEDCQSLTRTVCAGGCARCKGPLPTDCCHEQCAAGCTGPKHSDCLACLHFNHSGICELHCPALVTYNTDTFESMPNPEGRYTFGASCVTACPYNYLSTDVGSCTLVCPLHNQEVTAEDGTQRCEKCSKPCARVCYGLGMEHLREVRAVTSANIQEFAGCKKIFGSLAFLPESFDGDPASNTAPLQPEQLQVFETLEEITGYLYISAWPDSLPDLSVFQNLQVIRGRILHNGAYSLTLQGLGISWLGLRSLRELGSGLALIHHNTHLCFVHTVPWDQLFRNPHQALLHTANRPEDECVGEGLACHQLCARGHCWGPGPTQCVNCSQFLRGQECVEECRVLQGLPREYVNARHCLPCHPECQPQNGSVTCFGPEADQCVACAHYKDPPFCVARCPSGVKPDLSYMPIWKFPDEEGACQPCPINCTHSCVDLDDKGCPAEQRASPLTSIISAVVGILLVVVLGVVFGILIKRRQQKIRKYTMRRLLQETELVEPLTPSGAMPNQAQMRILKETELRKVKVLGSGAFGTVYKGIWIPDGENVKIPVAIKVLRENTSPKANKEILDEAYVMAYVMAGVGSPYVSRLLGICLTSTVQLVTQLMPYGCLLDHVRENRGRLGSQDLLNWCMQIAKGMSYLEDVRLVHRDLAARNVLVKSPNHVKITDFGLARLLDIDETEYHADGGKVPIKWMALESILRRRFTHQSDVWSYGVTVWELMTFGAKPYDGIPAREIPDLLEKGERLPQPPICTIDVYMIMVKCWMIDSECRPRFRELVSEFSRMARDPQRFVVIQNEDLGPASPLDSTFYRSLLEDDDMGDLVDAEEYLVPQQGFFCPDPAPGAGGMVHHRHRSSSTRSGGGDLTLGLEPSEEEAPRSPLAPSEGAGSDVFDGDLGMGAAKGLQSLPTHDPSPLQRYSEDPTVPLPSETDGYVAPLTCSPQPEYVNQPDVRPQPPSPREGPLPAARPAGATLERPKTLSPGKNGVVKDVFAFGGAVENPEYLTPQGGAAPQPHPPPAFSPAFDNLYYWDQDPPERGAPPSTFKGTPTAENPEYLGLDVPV
Procedure: as §1, §2, §3

T1 sequence (P04626 23-1255): as the sequence (P04626 23-1255) above

| Compound | EC50 [1] [nM] | IC50 (EGFR WT) [nM] | IC50 (HER2 WT) [nM] | IC50 (HER2YVMA) [nM] |
| --- | --- | --- | --- | --- |
| C=CC(=O)N1CCc2c(sc3ncnc(Nc4ccc(Oc5cccnc5)c(Cl)c4)c23)C1 [Compound 6, 1-(4-((3-chloro-4-(pyridin-3-yloxy)phenyl)amino)-5,8-dihydropyrido[4′,3′:4,5]thieno[2,3-d]pyrimidin-7(6H)-yl)prop-2-en-1-one] | < 100 | > 10000 | < 100 | < 100 |
| COc1cc(Nc2ncnc3sc4c(c23)CCN(C(=O)/C=C/CN(C)C)C4)ccc1Oc1ccccc1 [Compound 7, (E)-4-(dimethylamino)-1-(4-((3-methoxy-4-phenoxyphenyl)amino)-5,8-dihydropyrido[4′,3′:4,5]thieno[2,3-d]pyrimidin-7(6H)-yl)but-2-en-1-one] | < 100 | > 10000 | < 100 | < 100 |
| Cc1ccc(Oc2ccc(Nc3ncnc4sc5c(c34)CCN(C(=O)/C=C/CN(C)C)C5)cc2C)cn1 [Compound 8, (E)-4-(Dimethylamino)-1-(4-((3-methyl-4-((6-methylpyridin-3-yl)oxy)phenyl)amino)-5,6-dihydropyrido[4′,3′:4,5]thieno[2,3-d]pyrimidin-7(8H)-yl)but-2-en-1-one] | < 100 | 1000 to 10000 | < 100 | < 100 |
| C=CC(=O)N1CCc2c(sc3ncnc(Nc4ccc(Oc5cccnc5)c(C)c4)c23)C1 [Compound 11, 1-(4-((3-methyl-4-(pyridin-3-yloxy)phenyl)amino)-5,8-dihydropyrido[4′,3′:4,5]thieno[2,3-d]pyrimidin-7(6H)-yl)prop-2-en-1-one] | < 100 | 1000 to 10000 | < 100 | < 100 |
| Cc1cc(Nc2ncnc3sc4c(c23)CCN(C(=O)/C=C/CN2CCOCC2)C4)ccc1Oc1ccc2ncnn2c1 [Compound 12] | < 100 | > 10000 | < 100 | 100 to 1000 |
| Cc1ccc(Oc2ccc(Nc3ncnc4sc5c(c34)CCN(C(=O)/C=C/CN3CC4CCC(C3)O4)C5)cc2C)cn1 [Compound 13] | < 100 | > 10000 | < 100 | 100 to 1000 |
| Cc1ccc(Oc2ccc(Nc3ncnc4sc5c(c34)CCN(C(=O)/C=C/CN3CC4CCC3C4)C5)cc2C)cn1 (stereo not drawn) [Compound 14] | < 100 | > 10000 | < 100 | < 100 |
| Cc1ccc(Oc2ccc(Nc3ncnc4sc5c(c34)CCN(C(=O)/C=C/CN3CC4CC(C3)O4)C5)cc2C)cn1 [Compound 15] | < 100 | > 10000 | < 100 | 100 to 1000 |
| Cc1ccc(Oc2ccc(Nc3ncnc4sc5c(c34)CCN(C(=O)/C=C/CN3CCOCC3)C5)cc2C)cn1 [Compound 17, (E)-1-(4-((3-Methyl-4-((6-methylpyridin-3-yl)oxy)phenyl)amino)-5,6-dihydropyrido[4′,3′:4,5]thieno[2,3-d]pyrimidin-7(8H)-yl)-4-morpholinobut-2-en-1-one] | < 100 | > 10000 | < 100 | < 100 |
| O=C(/C=C/CN1CCOCC1)N1CCc2c(sc3ncnc(Nc4ccc(Oc5ccc6ncnn6c5)c(Cl)c4)c23)C1 [Compound 18] | < 100 | > 10000 | < 100 | < 100 |
| Cc1cc(Nc2ncnc3sc4c(c23)CCN(C(=O)/C=C/CN(C)C)C4)ccc1Oc1ccc2scnc2c1 [Compound 107, (E)-1-(4-((4-(benzo[d]thiazol-5-yloxy)-3-methylphenyl)amino)-5,8-dihydropyrido[4′,3′:4,5]thieno[2,3-d]pyrimidin-7(6H)-yl)-4-(dimethylamino)but-2-en-1-one] | < 100 | 1000 to 10000 | < 100 | < 100 |
| Cc1ccc(Oc2ccc(Nc3ncnc4sc5c(c34)CN(C(=O)/C=C/CN(C)C)CC5)cc2C)cn1 [Compound 108, (E)-4-(Dimethylamino)-1-(4-((3-methyl-4-((6-methylpyridin-3-yl)oxy)phenyl)amino)-7,8-dihydropyrido[3′,4′:4,5]thieno[2,3-d]pyrimidin-6(5H)-yl)but-2-en-1-one] | < 100 | > 10000 | < 100 | < 100 |
| Cc1cc(Nc2ncnc3sc4c(c23)CCN(C(=O)/C=C/CN(C)C)C4)ccc1Oc1ccc2nccn2c1 [Compound 109, (E)-4-(dimethylamino)-1-(4-((4-(imidazo[1,2-a]pyridin-6-yloxy)-3-methylphenyl)amino)-5,6-dihydropyrido[4′,3′:4,5]thieno[2,3-d]pyrimidin-7(8H)-yl)but-2-en-1-one] | < 100 | > 10000 | 100 to 1000 | < 100 |
| Cc1cn2ccc(Oc3ccc(Nc4ncnc5sc6c(c45)CCN(C(=O)/C=C/CN(C)C)C6)cc3C)cc2n1 [Compound 110, (E)-4-(dimethylamino)-1-(4-((3-methyl-4-((2-methylimidazo[1,2-a]pyridin-7-yl)oxy)phenyl)amino)-5,8-dihydropyrido[4′,3′:4,5]thieno[2,3-d]pyrimidin-7(6H)-yl)but-2-en-1-one] | < 100 | > 10000 | 100 to 1000 | < 100 |
| Cc1cc(Nc2ncnc3sc4c(c23)CN(C(=O)/C=C/CN(C)C)C4)ccc1Oc1ccc2ncnn2c1 [Compound 111, (E)-1-(4-((4-([1,2,4]Triazolo[1,5-a]pyridin-6-yloxy)-3-methylphenyl)amino)-5H-pyrrolo[3′,4′:4,5]thieno[2,3-d]pyrimidin-6(7H)-yl)-4-(dimethylamino)but-2-en-1-one] | < 100 | > 10000 | < 100 | < 100 |
